Reference: patent publication US7348427B2, “Antipathogenic benzamide compounds” (Genesoft Pharmaceuticals, Inc., priority 2001, dated 2008)
≈ marks a conversion by molar mass, not a printed value.

Assays:
[1] = tested on: S. pneumoniae ATCC 49619; experiment: MIC, NCCLS broth microdilution assay; assay type: cell-based, Streptococcus pneumoniae; conditions: H = S. pneumoniae ATCC 49619
Description: (§1) Compounds according to this invention were screened for their in vitro activities against selected species of bacteria and fungi. The minimal inhibition concentration (MIC) of these compounds was determined using the National Committee for Clinical Laboratory Standards (NCCLS) broth microdilution assay in microtiter plates, as set forth in: (1) the guidelines of the National. Committee for Clinical Laboratory Standards (NCCLS) Document M7-A4 (NCCLS, 1997); (2) the guidelines of the National Committee for Clinical Laboratory Standards (NCCLS) Document M11-A4 (NCCLS, 1997); and (3) the guidelines and reference method of the National Committee for Clinical Laboratory Standards (NCCLS) Document M27-T (NCCLS, 1995). For antifungal assays, the method recommended in Murray, P R., 1995 Manual of Clinical Microbiology (ASM Press, Washington, D.C.), was employed.

[2] = tested on: E. faecalis ATCC 29212; experiment: MIC, NCCLS broth microdilution assay; assay type: cell-based, Enterococcus faecalis; conditions: C = E. faecalis ATCC 29212
Description: as §1

[3] = tested on: Bacillus cereus (ATCC 11778); experiment: MIC, NCCLS broth microdilution assay; assay type: cell-based; conditions: A = B. cereus ATCC 11778
Excerpt: (§2) In vitro biological activity data were collected for a variety of microorganisms, including Bacillus cereus (ATCC 11778), Staphylococcus aureus (ATCC 27660, a methicillin resistant strain (MRSA); ATCC 13709, a methicillin sensitive strain (MSSA)); Streptococcus pneumoniae (ATCC 51422, a penicillin resistant strain (PRSP)), Enterococcus faecium (ATCC 51559, a vancomycin resistant strain (VRE)), and Staphylococcus epidermidis (ATCC 12228). Additionally, antifungal activity data were collected for Candida albicans (ATCC 38247).
as §1

[4] = tested on: Staphylococcus aureus (ATCC 13709, a methicillin sensitive strain (MSSA)); experiment: MIC, NCCLS broth microdilution assay; assay type: cell-based; conditions: E = S. aureus ATCC 13709
Excerpt: as §2, §1

[5] = tested on: Staphylococcus aureus (ATCC 27660, a methicillin resistant strain (MRSA)); experiment: MIC, NCCLS broth microdilution assay; assay type: cell-based; conditions: F = S. aureus ATCC 27660
Excerpt: as §2, §1

[6] = tested on: Candida albicans (ATCC 38247); experiment: Antifungal MIC assay; assay type: cell-based; conditions: B = C. albicans ATCC 38247
Excerpt: as §2, §1

[7] = Staphylococcus aureus, read-out: Minimum Inhibitory Concentration (MIC)

| SMILES | MIC ([1]; Streptococcus pneumoniae, ATCC49619, read-out: Minimum Inhibitory Concentration (MIC)) [µg/mL] | MIC ([2]; Enterococcus faecalis, ATCC29212, read-out: Minimum Inhibitory Concentration (MIC)) [µg/mL] | MIC ([3]; Bacillus cereus, ATCC11778, read-out: Minimum Inhibitory Concentration (MIC)) [µg/mL] | MIC [4, 7] [µg/mL] | MIC [5, 7] [µg/mL] | MIC ([6]; Candida albicans, ATCC38247, read-out: Minimum Inhibitory Concentration (MIC)) [µg/mL] | Minimum Inhibitory Concentration (MIC) [1] | Minimum Inhibitory Concentration (MIC) [2] | Minimum Inhibitory Concentration (MIC) [3] | Minimum Inhibitory Concentration (MIC) [4] | Minimum Inhibitory Concentration (MIC) [5] | Minimum Inhibitory Concentration (MIC) [6] [µg/mL] |
| --- | --- | --- | --- | --- | --- | --- | --- | --- | --- | --- | --- | --- |
| Cn1cc(NC(=O)c2cc(NC(=O)c3ccc(Cl)cc3F)c[nH]2)cc1C(=O)NCCN1CCOCC1 [Compound A-17] | ≤ 4 | ≤ 4 | 12 to 32 (≈ 23.2 to 61.9 µM) | 4 to 12 (≈ 7.74 to 23.2 µM) | 4 to 12 (≈ 7.74 to 23.2 µM) | > 32 | – | – | – | – | – | – |
| Cn1cc(NC(=O)c2cc(NC(=O)c3ccc(Cl)cc3F)c[nH]2)cc1C(=O)NCCN1CCCC1 [Compound A-19] | – | – | – | – | – | – | +++ (+++ = MIC ≦ 4) | +++ (+++ = MIC ≦ 4) | + (+ = 12 ≦ MIC ≦ 32) | ++ (++ = 4 < MIC < 12) | +++ (+++ = MIC ≦ 4) | >32 |
| CCN(CC)CCNC(=O)c1cc(NC(=O)c2cc(NC(=O)c3ccc(Cl)cc3F)c[nH]2)cn1C [Compound A-20] | – | – | – | – | – | – | +++ (+++ = MIC ≦ 4) | +++ (+++ = MIC ≦ 4) | + (+ = 12 ≦ MIC ≦ 32) | ++ (++ = 4 < MIC < 12) | ++ (++ = 4 < MIC < 12) | >32 |
| Cn1cc(NC(=O)c2cc(NC(=O)c3ccc(Cl)cc3F)c[nH]2)cc1C(=O)NCCN1CCC(O)CC1 [Compound A-23] | – | – | – | – | – | – | +++ (+++ = MIC ≦ 4) | + (+ = 12 ≦ MIC ≦ 32) | + (+ = 12 ≦ MIC ≦ 32) | + (+ = 12 ≦ MIC ≦ 32) | + (+ = 12 ≦ MIC ≦ 32) | >32 |
| Cn1cc(NC(=O)c2cc(NC(=O)c3cc(NC(=O)c4ccc(Cl)cc4F)c[nH]3)cn2C)cc1C(=O)NCCc1cccnc1 [Compound A-24] | – | – | – | – | – | – | +++ (+++ = MIC ≦ 4) | ++ (++ = 4 < MIC < 12) | +++ (+++ = MIC ≦ 4) | >32 µg/mL | +++ (+++ = MIC ≦ 4) | >32 |
| Cn1cc(NC(=O)c2cc(NC(=O)c3ccc(Cl)cc3F)c[nH]2)cc1C(=O)NCCc1ccncc1 [Compound A-25] | – | – | – | – | – | – | +++ (+++ = MIC ≦ 4) | +++ (+++ = MIC ≦ 4) | ++ (++ = 4 < MIC < 12) | +++ (+++ = MIC ≦ 4) | +++ (+++ = MIC ≦ 4) | >32 |
| Cn1cc(NC(=O)c2cc(NC(=O)c3cc(NC(=O)c4cc(NC(=O)c5ccc(Cl)cc5F)c[nH]4)cn3C)cn2C)cc1C(=O)NCCN1CCOCC1 [Compound A-27] | – | – | – | – | – | – | +++ (+++ = MIC ≦ 4) | ++ (++ = 4 < MIC < 12) | +++ (+++ = MIC ≦ 4) | + (+ = 12 ≦ MIC ≦ 32) | + (+ = 12 ≦ MIC ≦ 32) | >32 |
| Cn1cc(NC(=O)c2cc(NC(=O)c3cc(NC(=O)c4ccc(Cl)cc4F)c[nH]3)cn2C)cc1C(=O)NCCN1CCSC1 [Compound A-29] | – | – | – | – | – | – | +++ (+++ = MIC ≦ 4) | + (+ = 12 ≦ MIC ≦ 32) | +++ (+++ = MIC ≦ 4) | +++ (+++ = MIC ≦ 4) | ++ (++ = 4 < MIC < 12) | >32 |
| Cn1cc(NC(=O)c2cc(NC(=O)c3cc(NC(=O)c4ccc(Cl)c(Cl)c4)c[nH]3)cn2C)cc1C(=O)NCCN1CCOCC1 [Compound A-30] | – | – | – | – | – | – | +++ (+++ = MIC ≦ 4) | +++ (+++ = MIC ≦ 4) | +++ (+++ = MIC ≦ 4) | +++ (+++ = MIC ≦ 4) | +++ (+++ = MIC ≦ 4) | >32 |
| Cn1cc(NC(=O)c2cc(NC(=O)c3cc(NC(=O)c4ccc(F)cc4F)cn3C)cn2C)cc1C(=O)NCCCN1CCCCC1 [Compound B-4] | – | – | – | – | – | – | ++ (++ = 4 < MIC < 12) | ++ (++ = 4 < MIC < 12) | ++ (++ = 4 < MIC < 12) | ++ (++ = 4 < MIC < 12) | ++ (++ = 4 < MIC < 12) | >32 |
| Cn1cc(NC(=O)c2cc(NC(=O)c3cc(NC(=O)c4ccc(F)cc4F)cn3C)cn2C)cc1C(=O)NCCN1CCCC1 [Compound B-5] | – | – | – | – | – | – | +++ (+++ = MIC ≦ 4) | +++ (+++ = MIC ≦ 4) | +++ (+++ = MIC ≦ 4) | +++ (+++ = MIC ≦ 4) | +++ (+++ = MIC ≦ 4) | >32 |
| Cn1cc(NC(=O)c2cc(NC(=O)c3cc(NC(=O)c4ccc(F)cc4F)cn3C)cn2C)cc1C(=O)NCCCNC1CCCCC1 [Compound B-7] | – | – | – | – | – | – | +++ (+++ = MIC ≦ 4) | +++ (+++ = MIC ≦ 4) | +++ (+++ = MIC ≦ 4) | +++ (+++ = MIC ≦ 4) | +++ (+++ = MIC ≦ 4) | >32 |
| Cn1cc(NC(=O)c2cc(NC(=O)c3cc(NC(=O)c4ccc(F)cc4F)cn3C)cn2C)cc1C(=O)NCCCN1CCOCC1 [Compound B-8] | – | – | – | – | – | – | ++ (++ = 4 < MIC < 12) | ++ (++ = 4 < MIC < 12) | ++ (++ = 4 < MIC < 12) | ++ (++ = 4 < MIC < 12) | ++ (++ = 4 < MIC < 12) | >32 |
| Cn1cc(NC(=O)c2ccc(F)cc2F)cc1C(=O)Nc1cc(C(=O)Nc2cc(C(=O)OCCN3CCCCC3)n(C)c2)n(C)c1 [Compound B-9] | – | – | – | – | – | – | +++ (+++ = MIC ≦ 4) | +++ (+++ = MIC ≦ 4) | +++ (+++ = MIC ≦ 4) | +++ (+++ = MIC ≦ 4) | +++ (+++ = MIC ≦ 4) | >32 |
| Cn1cc(NC(=O)c2ccc(F)cc2F)cc1C(=O)Nc1cc(C(=O)Nc2cc(C(=O)OCCN3CCOCC3)n(C)c2)n(C)c1 [Compound B-10] | – | – | – | – | – | – | +++ (+++ = MIC ≦ 4) | +++ (+++ = MIC ≦ 4) | +++ (+++ = MIC ≦ 4) | + (+ = 12 ≦ MIC ≦ 32) | + (+ = 12 ≦ MIC ≦ 32) | >32 |
| C[C@@H]1CN(CCNC(=O)c2cc(NC(=O)c3cc(NC(=O)c4ccc(F)cc4F)cn3C)cn2C)C[C@H](C)O1 [Compound B-12] | – | – | – | – | – | – | +++ (+++ = MIC ≦ 4) | +++ (+++ = MIC ≦ 4) | +++ (+++ = MIC ≦ 4) | ++ (++ = 4 < MIC < 12) | +++ (+++ = MIC ≦ 4) | >32 |
